Paper PMC9142922, “Galactosylated Prodrugs: A Strategy to Improve the Profile of Nonsteroidal Anti-Inflammatory Drugs” (Pharmaceuticals, 2022)
In brackets after ≈: the same amount, converted by molar mass. Read-outs that look alike come from different tables or passages of the source.

Experiments:
[1] = Solubility assay at 25 °C (RP-HPLC); format: physicochemical; conditions: thermodynamic from solid
Description: The solubilities of the prodrugs and parent drugs were evaluated at 25 °C in water, simulated gastric fluid (SGF without pepsin, pH 1.2) and PBS (pH 7.4), which are the media used for chemical stability analyses. The solubilities were quantified using RP-HPLC.
Solubility was assessed in deionized water, SGF without pepsin (pH 1.2) and PBS (pH 7.4, 50 mM). The test solid compounds (5 mg) were added to 1 mL of water, PBS and SGF in glass tubes and shaken for 6 h at 25 °C. The suspensions were filtered through a PTFE 0.45 μm filter (VWR), and the resulting solutions were analyzed by means of RP-HPLC (see below). Experiments were performed in triplicate for each compound. Solubility is expressed as mM concentration.

[2] = Chemical stability in SGF (pH 1.2) and PBS (pH 7.4) at 37 °C; format: physicochemical; conditions: unmodified incubated compound, 100 µM, PBS pH 7.4, 37 °C, mean ± SD
Description: The concentrations of the galactosylated prodrugs and the parent drugs derived from the prodrugs were quantified using RP-HPLC (Table 2).
A 10 mM solution of each compound (the galactosylated prodrugs and their parent drugs) was added to either simulated gastric fluid (SGF-without pepsin) or phosphate-buffered saline (PBS, 50 mM). The SGF and PBS buffers were prepared as previously described.

[3] = aqueous buffer, PBS pH 7.4 50 mM, 25 °C, read-out: Solubility at 25 °C, PBS pH 7.4
[4] = simulated gastric fluid, SGF without pepsin pH 1.2, 25 °C, LOQ (HPLC) = 1 µM, read-out: Solubility at 25 °C, SGF pH 1.2
[5] = deionized water, 6 h shaking, 25 °C, mean, SD < 0.01, read-out: Solubility at 25 °C, Water

| Compound | solubility at 6 h [1, 3] | solubility at 6 h [1, 4] | solubility at 6 h [1, 5] | Stability at 37 °C, % compound after 24 h of incubation, PBS pH 7.4 [2] |
| --- | --- | --- | --- | --- |
| CC(C(=O)OC[C@H]1OC(O)[C@H](O)[C@@H](O)[C@H]1O)c1ccc(-c2ccccc2)c(F)c1 (some centres unmarked) [FluGAL] | 1010 µM (≈ 410 µg/mL) | 1440 µM (≈ 585 µg/mL) | 5210 µM (≈ 2120 µg/mL) | 87.3 ± 2.1% |
| CC(C)Cc1ccc(C(C)C(=O)OC[C@H]2OC(O)[C@H](O)[C@@H](O)[C@H]2O)cc1 (some centres unmarked) [IbuGAL] | 2930 µM (≈ 1080 µg/mL) | 2530 µM (≈ 932 µg/mL) | 1940 µM (≈ 715 µg/mL) | 81.2 ± 2.5% |
